This passage reports Activity results from ChEMBL document CHEMBL4842332, “Eriocitrin Contained in Lemon Peel Ameliorates Disuse Muscle Atrophy by Suppressing the Expression of Atrogin-1 and MuRF-1 in Denervated Mice” (2021).

Activity calls are given as the source filed them. The rule behind the calls is not given here.

Test [1] is filed under the species Mus musculus. Description: Upregulation of IGF-1 mRNA expression in denervated C57BL/6NCrSlc mouse by RT-PCR analysis. The format is functional.
For test [2], the species on record is Mus musculus. Description: Downregulation of FOXO1 mRNA expression in denervated C57BL/6NCrSlc mouse by RT-PCR analysis. It counts as functional.
The species named for test [3] is Mus musculus. The experiment in a line: Downregulation of MuRF-1 mRNA expression in denervated C57BL/6NCrSlc mouse by RT-PCR analysis. It counts as functional.
The species entered for test [4] is Mus musculus. Description: Effect of PPARgamma mRNA expression in denervated C57BL/6NCrSlc mouse by RT-PCR analysis. It counts as functional, organism-based.
Test [5] is filed under the species Mus musculus. Description: Upregulation of Atrogin-1 mRNA expression in denervated C57BL/6NCrSlc mouse by RT-PCR analysis. It counts as functional.
The species entered for test [6] is Mus musculus. Description: Effect of PPARdelta mRNA expression in denervated C57BL/6NCrSlc mouse by RT-PCR analysis. The format is functional, organism-based.
For test [7], the species on record is Mus musculus. Description: Upregulation of SOD1 mRNA expression in denervated C57BL/6NCrSlc mouse by RT-PCR analysis. It counts as functional.
For test [8], the species on record is Mus musculus. Description: Effect on PGC1a mRNA expression in denervated C57BL/6NCrSlc mouse by RT-PCR analysis. It counts as functional.
Test [9] is filed under the species Mus musculus. Description: Antioxidant activity in denervated C57BL/6NCrSlc mouse assessed as […] in GSSG/GSH ratio in gastrocnemius muscle measured after 30 mins. The format is functional, organism-based.
Test [10] is filed under the species Mus musculus. The experiment in a line: Antioxidant activity in denervated C57BL/6NCrSlc mouse assessed as […] in lipid peroxide level in gastrocnemius muscle measured after 30 mins. The format is functional, organism-based.
The species named for test [11] is Mus musculus. The experiment in a line: Toxicity in denervated C57BL/6NCrSlc mouse assessed as effect on body weight (reference value: 25.74 g). The format is functional.
Test [12] is filed under the species Mus musculus. Description: Suppression of denervation-induced gastrocnemius muscle weight loss in C57BL/6NCrSlc mouse. The format is functional, organism-based.

As for `C[C@@H]1O[C@@H](OC[C@H]2O[C@@H](Oc3cc(O)c4c(c3)O[C@H](c3ccc(O)c(O)c3)CC4=O)[C@H](O)[C@@H](O)[C@@H]2O)[C@H](O)[C@H](O)[C@H]1O` [ERIOCITRIN], the outcome in the test filed under Mus musculus [1], in the test listed under Mus musculus [2], in the test filed under Mus musculus [3], in the test listed under Mus musculus [7], in the test listed under Mus musculus [9] and in the test filed under Mus musculus [10] was Active. The result in the test listed under Mus musculus [12] was Active. Moreover, the outcome in the test filed under Mus musculus [4], in the test filed under Mus musculus [5], in the test listed under Mus musculus [6] and in the test listed under Mus musculus [8] was inactive. Further, in the test listed under Mus musculus [11], the Activity is listed as 25.37 g.
